Assay results as given in US7019015B2, “Fungicide for plants” (Valent BioSciences, Inc., priority 2003, dated 2006).

How the values were obtained:
Rhizoctonia solani = experiment: Contact evaluation (microtiter plate), Rhizoctonia solani; assay type: cell-based; conditions: Rhizoctinia solani
Protocol: (§1) Compound solution: Contact evaluations were conducted to determine the anti-fungal activity of each compound against Botrytis cinerea, Sclerotinia sclerotiorum, Pythium aphanidermatum, Rhizoctonia solani, Cercospora arachidicola, Mycosphaerella fijiensis, and Monilinia laxa. Five milligrams of each compound were dissolved in 0.5 milliliter of DMSO for a compound stock solution of 1.0% w/v. Compound stock solutions were serial diluted with DMSO to 20, 10, and 2 ppm final well concentration. Fungi preparation: Botrytis cinerea spores were taken from 6-week-old cultures grown at 22C on full strength potato dextrous agar (PDA) plates. Sclerotinia sclerotiorum, Pythium aphanidermatum, Rhizoctonia solani, and Monilinia laxa mycelia were taken from 4- to 10-day-old shake flask cultures grown at room temperature on full strength potato dextrous broth (PDB). Cercospora arachidicola mycelia were taken from 10- to 14-day-old shake flask cultures grown at room temperature on a full strength PDB amended with peanut oil. Mycosphaerella fijiensis mycelia were taken from 10- to 14-day-old shake flask cultures grown at room temperature on V8 juice broth. Sclerotinia sclerotiorum, Pythium aphanidermatum, Rhizoctonia solani, Cercospora arachidicola, and Mycosphaerella fijiensis mycelia (0.4 g mycelia) were blended for 45 seconds in 20 mL sterile de-ionized water. Monilinia laxa mycelia (1 g mycelia) was blended for 45 seconds in 30 mL of sterile de-ionized water. Botrytis cinerea spores were diluted with quarter strength PDB to 1×10^5 spores/mL final well concentration. All mycelia were diluted in water (1:5 mycelia:water) before distributing into the wells. Microtiter plate preparation: Compound solution (10 :L), quarter strength PDB (900 :L) and fungi preparation (100 :L) were sequentially distributed into 48-well microtiter plates (n=3 replications/compound/rate). A blank consisted of quarter strength PDB and fungi preparation. […] Final readings were the average of the three wells (Table 1).

Pythium aphanidermatum = experiment: Contact evaluation (microtiter plate), Pythium aphanidermatum; assay type: cell-based
Protocol: as §1

Monilinia laxa = experiment: Contact evaluation (microtiter plate), Monilinia laxa; assay type: cell-based
Protocol: as §1

Botrytis cinerea [1] = experiment: Contact evaluation (microtiter plate), Botrytis cinerea; assay type: cell-based
Protocol: as §1

Cercospora arachidicola = experiment: Contact evaluation (microtiter plate), Cercospora arachidicola; assay type: cell-based
Protocol: as §1

Sclerotinia sclerotiorum = experiment: Contact evaluation (microtiter plate), Sclerotinia sclerotiorum; assay type: cell-based; conditions: Sclerotinia scierotionum
Protocol: as §1

Mycosphaerella fijiensis = experiment: Contact evaluation (microtiter plate), Mycosphaerella fijiensis; assay type: cell-based
Protocol: as §1

Botrytis cinerea [2] = experiment: Detached bean leaf bioassay, fungal control; assay type: in vivo; conditions: 200 ppm on detached bean leaf; 100 minus percent necrotic area, three days after inoculation
Protocol: Detached Bean Leaf Bioassay
Compound solution: Compound solutions were prepared by diluting compound stock solutions (1.0% w/v compound in DMSO) to 200 ppm with 0.01% w/v Triton X-100.
Spore solution preparation: Botrytis cinerea spores were taken from 6-week-old cultures grown at 22C on full strength potato dextrous agar (PDA) plates and harvested in 1:16 frozen orange juice concentrate:water. Botrytis cinerea spore solutions were prepared by diluting spore cultures to 5×10^4 spores/mL with 1:16 frozen orange juice concentrate:water.
Plant material: Middle trifoliate leaves of greenhouse grown Phaseolus vulgaris (Bush bean cv. Blue Lake 274) were excised and placed on a plastic grid above a tray containing moist towels.
Treatment method: One half of the adaxial surface of the leaf was treated with the compound solution (100 :L) using a 3 cm Bacti Cell Spreader. A blank consisted of 0.01% w/v Triton X-100. A commercial fungicide control (200 ppm diluted with water) consisted of Scala. […]
Fungal control rating: Three days after inoculation with Botrytis, the percent necrotic area under the inoculation droplet was determined. Since the areas under the blank (0.01% w/v Triton X-100) were 100% infected, fungal control was expressed as 100 minus the percent necrotic area, and thus 0% infected is 100% fungal control (n=3 leaves/compound, 5 inoculation droplets/leaf, Table 2).

[3] = system: Phaseolus vulgaris (Bush bean cv. Blue Lake 274) leaves; experiment: Detached bean leaf bioassay, phytotoxicity rating; assay type: in vivo
Protocol: Compound solution: Compound solutions were prepared by diluting compound stock solutions (1.0% w/v compound in DMSO) to 200 ppm with 0.01% w/v Triton X-100. Plant material: Middle trifoliate leaves of greenhouse grown Phaseolus vulgaris (Bush bean cv. Blue Lake 274) were excised and placed on a plastic grid above a tray containing moist towels. Treatment method: One half of the adaxial surface of the leaf was treated with the compound solution (100 :L) using a 3 cm Bacti Cell Spreader. A blank consisted of 0.01% w/v Triton X-100. A commercial fungicide control (200 ppm diluted with water) consisted of Scala. After the solutions dried, the trays containing the leaves were covered and held one day in a growth chamber (22C). The adaxial surfaces of the leaves were then inoculated with 5–60 :L droplets of Botrytis cinerea spore solution. Phytotoxicity ratings: Phytotoxicity was rated as 0=no phytotoxicity, 1=slight phytotoxicity, 2=moderate phytotoxicity, or 3=excessive phytotoxicity (Table 2).

COc1ccc(C2(OC)c3ccccc3N(c3ccccc3)c3ccccc32)cc1 [formula I, 9-phenyl-10-methoxy-10-(4-methoxyphenyl)-9,10-dihydroacridine]
None: Control of fungi (full, partial, none) (Cercospora arachidicola; fungicide rate 2 ppm) | Control of fungi (full, partial, none) (Mycosphaerella fijiensis; fungicide rate 2 ppm)
Partial: Control of fungi (full, partial, none) (Botrytis cinerea [1]; fungicide rate 2 ppm) | Control of fungi (full, partial, none) (Sclerotinia sclerotiorum; fungicide rate 2 ppm) | Control of fungi (full, partial, none) (Mycosphaerella fijiensis; fungicide rate 10 ppm)
Full: Control of fungi (full, partial, none) (Rhizoctonia solani; fungicide rate 2 ppm) | Control of fungi (full, partial, none) (Rhizoctonia solani; fungicide rate 10 ppm) | Control of fungi (full, partial, none) (Rhizoctonia solani; fungicide rate 20 ppm) | Control of fungi (full, partial, none) (Pythium aphanidermatum; fungicide rate 2 ppm) | Control of fungi (full, partial, none) (Pythium aphanidermatum; fungicide rate 10 ppm) | Control of fungi (full, partial, none) (Pythium aphanidermatum; fungicide rate 20 ppm) | Control of fungi (full, partial, none) (Monilinia laxa; fungicide rate 2 ppm) | Control of fungi (full, partial, none) (Monilinia laxa; fungicide rate 10 ppm) | Control of fungi (full, partial, none) (Monilinia laxa; fungicide rate 20 ppm) | Control of fungi (full, partial, none) (Botrytis cinerea [1]; fungicide rate 10 ppm) | Control of fungi (full, partial, none) (Botrytis cinerea [1]; fungicide rate 20 ppm) | Control of fungi (full, partial, none) (Cercospora arachidicola; fungicide rate 10 ppm) | Control of fungi (full, partial, none) (Cercospora arachidicola; fungicide rate 20 ppm) | Control of fungi (full, partial, none) (Sclerotinia sclerotiorum; fungicide rate 10 ppm) | Control of fungi (full, partial, none) (Sclerotinia sclerotiorum; fungicide rate 20 ppm) | Control of fungi (full, partial, none) (Mycosphaerella fijiensis; fungicide rate 20 ppm)
Slight: Phytotoxity (200 ppm) [3]
80%: Botrytis cinerea control (200 ppm) (Botrytis cinerea [2])
